Laboratory results reported in patent US9789102B2, “H3 receptor antagonist for use in the treatment of alzheimer's disease” (SANOFI, priority 2012, dated 2017).

Experiments:
[1] = test system: neurofibrillary tangles (NFTs); experiment: NFTs formation by Gallyas silver staining with quantitative image analysis after six months in food; assay type: in vivo, THY-Tau22 mice
Source text: 2-(Cyclohexylmethyl)-N-{2-[(2S)-1-methylpyrrolidin-2-yl]ethyl}-1,2,3,4-tetrahydroisoquinoline-7-sulfonamide difumarate monohydrate was administrated as a supplement in food at doses of 0.00034%, 0.0034% and 0.034% for six months in THY-Tau22 and wild type mice as follows: • Tg Veh (n=17) • Tg Active Ingredient—0.034% (n=17) • Tg Active Ingredient—0.0034% (n=17) • Tg Active Ingredient—0.00034% (n=17) • WT Veh (n=17) • WT Active Ingredient—0.034% (n=17) • WT Active Ingredient—0.0034% (n=17) • WT Active Ingredient—0.00034% (n=17) • WT groups treated with Active Ingredient are not used in the biochemical and histological studies.
After mice were decapitated, brains were removed and one hemibrain (used for histopathological studies) was immersion-postfixed for seven days at 4° C. with 4% formaldehyde (Carlo Erba/code 415691). The other hemibrain was prepared for biochemical quantitative measurements.
Post-fixed hemibrains were incubated in phosphate-buffered saline (PBS, P 3813-10PAK, Sigma), transferred to a 20% sucrose solution (code 27480.294—Prolabo) for 48 hours at 4° C. to ensure good cryopreservation of tissues during subsequent freezing. For freezing, hemibrains were immersed for one minute in isopentane solution (Ref. No. 24872-323—Prolabo) cooled with dry ice to between −25° C. and −30° C. and then stored at −25° C.
The entire hemibrains were cut with a cryostat (Microm, HM560). Serial sagittal brain tissue sections were collected onto Superfrost plus microscope glass slides (VWR) and then stored at −20° C. (sections of 20 μm of thickness), or placed in PBS-sodium azide 0.1% (S-2002, Sigma) containing wells to avoid any contamination and stored at 4° C. (sections of 30 μm of thickness).
NFTs are a major defining neuropathological feature of tau pathology in AD. They consist of bundles of paired helical filaments and straight filaments and their main constituent is the hyperphosphorylated microtubule-associated protein tau. Gallyas staining is generally used to stain neurofibrillary pathology (Sun A. et al., J. Histochem Cytochem, 2002, 50, 4, pp. 463-472).
A series of 20 μm hemibrain sections (directly mounted on slides) per mice was used for Gallyas staining (Braak and Braak, 1991, Brain Pathology, 1, pp. 213-216). The detailed protocol is as follows:
The following reagents are used: periodic acid (Sigma Ref. No. P 7875); sodium hydroxide (Prolabo Ref. No. 1737-1000); potassium iodide (Merck Ref. No. 1.05043.1000); silver nitrate (Sigma Ref. No. S.8157); 100% ascetic acid (Prolabo Ref. No. 20 104.298); sodium carbonate, anhydrous (Merck Ref. No. 1.06392-0500); ammonium nitrate (Prolabo Ref. No. 21280-293); silicotungstic acid (Sigma Ref. No. T 2786); 40% formaldehyde (Carlo Erba Ref. No. 415661); sodium thiosulfate (Sigma Ref. No. 21724-500 g).
A first stock solution (No. 1) was prepared by dissolving 50 g of anhydrous sodium carbonate in 1000 ml of deionized water. A second stock solution (No. II) was prepared by dissolving 2 g of ammonium nitrate, 2 g of silver nitrate, and 10 g of silicotungstic acid in 1000 ml of deionized water. A third stock solution (No. III) was prepared by dissolving 2 g of ammonium nitrate, 2 g of silver nitrate, 10 g of silicotungstic acid, and 7.3 ml of commercial 37% formaldehyde solution in 1000 ml of deionized water. The stock solutions are stable and can be stored in opaque containers.
Each of the following steps in the method are carried out with stirring. • 1. Pretreatment: The sections on slides were immersed in a solution of 5% periodic acid in water for 5 minutes, and then rinsed twice for 5 minutes in deionized water. • 2. Argentation: The silver iodide solution is freshly prepared by dissolving 4 g of sodium hydroxide in 50 ml of distilled water and adding 10 g of potassium iodide, which is mixed and allowed to dissolve completely. 3.5 ml of a solution of 1% silver nitrate in water is added while stirring. […]

[2] = test system: tau phosphorylation at the AT-8 epitope; experiment: Western blot analysis of tau phosphorylation at AT-8 epitope after six months in food; assay type: in vivo, THY-Tau22 mice; conditions: 0.0034% in food, trend only, ns

## CN1CCC[C@H]1CCNS(=O)(=O)c1ccc2c(c1)CN(CC1CCCCC1)CC2 [2-(cyclohexylmethyl)-N-{2-[(2S)-1-methylpyrrolidin-2-yl]ethyl}-1,2,3,4-tetrahydroisoquinoline-7-sulfonamide difumarate monohydrate]
[1]; 0.00034% in food
  protective effect against pathological neurons (tangles number), all analyzed brain ROIs: no protective effect
[1]; 0.0034% in food, n=9
  NFTs formation in CA1 hippocampal subarea, vs vehicle: statistical significant decrease
  NFTs formation in cortex, vs vehicle: statistical significant decrease
[1]; 0.0034% in food, significant
  decrease in the number of tangles, CA1 hippocampal subarea: −25%
  decrease of the number of pathological neurons (NFTs, Gallyas), cortex: −48%
[1]; 0.0034% in food, statistically non-significant
  decrease in NFTs, amygdala: −19%
[1]; 0.034% in food, n=9
  NFTs formation in CA1 hippocampal subarea, vs vehicle: statistical significant decrease
  NFTs formation in amygdala, vs vehicle: statistical significant decrease
  NFTs formation in cortex, vs vehicle: statistical significant decrease
[1]; 0.034% in food, significant
  decrease in NFTs, amygdala: −31%
  decrease in the number of tangles, CA1 hippocampal subarea: −22%
  decrease of the number of pathological neurons (NFTs, Gallyas), cortex: −41%
[2]
  inhibition of tau phosphorylation at the AT-8 epitope, hippocampus: −22%
